# Measurements: PubChem BioAssay (NCI)
#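 Interpolation was linear, between the two tested concentrations surrounding the appropriate level; five concentrations were tested over 48 hours in 96-well plates. TGI: total growth inhibition.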
# How the values were obtained:
# Experiment in all cases: NCI anticancer screen, dose series, 48 h
# [1] = system: 786-0 renal
# [2] = system: A498 renal
# [3] = system: A549 NSCLC
# [4] = system: CAKI-1 renal
# [5] = system: CCRF-CEM leukemia
# [6] = system: COLO 205 colon
# [7] = system: DMS 114 small cell lung
# [8] = system: DMS 273 small cell lung
# [9] = system: HCC-2998 colon
# [10] = system: HCT-116 colon
# [11] = system: HCT-15 colon
# [12] = system: HOP-18 NSCLC
# [13] = system: HOP-62 NSCLC
# [14] = system: HOP-92 NSCLC
# [15] = system: HT29 colon
# [16] = system: IGROV1 ovarian
# [17] = system: K-562 leukemia
# [18] = system: KM12 colon
# [19] = system: KM20L2 colon
# [20] = system: LOX IMVI melanoma
# [21] = system: LXFL 529 NSCLC
# [22] = system: M14 melanoma
# [23] = system: M19-MEL melanoma
# [24] = system: MALME-3M melanoma
# [25] = system: MOLT-4 leukemia
# [26] = system: NCI-H226 lung
# [27] = system: NCI-H460 lung
# [28] = system: NCI-H522 lung
# [29] = system: OVCAR-5 ovarian
# [30] = system: OVCAR-8 ovarian
# [31] = system: RPMI-8226 leukemia
# [32] = system: RXF-631 renal
# [33] = system: SF-268 CNS
# [34] = system: SF-295 CNS
# [35] = system: SF-539 CNS
# [36] = system: SK-MEL-5 melanoma
# [37] = system: SK-OV-3 ovarian
# [38] = system: SN12C renal
# [39] = system: SNB-19 CNS
# [40] = system: SNB-75 CNS
# [41] = system: SNB-78 CNS
# [42] = system: SR leukemia
# [43] = system: SW-620 colon
# [44] = system: TK-10 renal
# [45] = system: U251 CNS
# [46] = system: UACC-62 melanoma
# [47] = system: UO-31 renal
# [48] = system: ACHN renal
# [49] = system: DLD-1 colon
# [50] = system: EKVX NSCLC
# [51] = system: HL-60(TB) leukemia
# [52] = system: NCI-H23 lung
# [53] = system: OVCAR-3 ovarian
# [54] = system: OVCAR-4 ovarian
# [55] = system: RXF 393 renal
# [56] = system: SK-MEL-2 melanoma
# [57] = system: SK-MEL-28 melanoma
# [58] = system: UACC-257 melanoma
smiles,measurement,setting,value
C=C1C(OC(=O)/C=C/c2ccccc2)CC(OC(C)=O)C2(C)C1CC1CC(OC(C)=O)C(C)=C(C(OC(C)=O)C2OC(C)=O)C1(C)C (stereo not drawn),TGI,[1],> 100 µM
same,TGI,[2],> 100 µM
same,TGI,[3],> 100 µM
same,TGI,[4],> 100 µM
same,TGI,[5],> 100 µM
same,TGI,[6],> 100 µM
same,TGI,[7],> 100 µM
same,TGI,[8],> 100 µM
same,TGI,[9],> 100 µM
same,TGI,[10],> 100 µM
same,TGI,[11],> 100 µM
same,TGI,[12],> 100 µM
same,TGI,[13],> 100 µM
same,TGI,[14],> 100 µM
same,TGI,[15],> 100 µM
same,TGI,[16],> 100 µM
same,TGI,[17],> 100 µM
same,TGI,[18],> 100 µM
same,TGI,[19],> 100 µM
same,TGI,[20],> 100 µM
same,TGI,[21],> 100 µM
same,TGI,[22],> 100 µM
same,TGI,[23],> 100 µM
same,TGI,[24],> 100 µM
same,TGI,[25],> 100 µM
same,TGI,[26],> 100 µM
same,TGI,[27],> 100 µM
same,TGI,[28],> 100 µM
same,TGI,[29],> 100 µM
same,TGI,[30],> 100 µM
same,TGI,[31],> 100 µM
same,TGI,[32],> 100 µM
same,TGI,[33],> 100 µM
same,TGI,[34],> 100 µM
same,TGI,[35],> 100 µM
same,TGI,[36],> 100 µM
same,TGI,[37],> 100 µM
same,TGI,[38],> 100 µM
same,TGI,[39],> 100 µM
same,TGI,[40],> 100 µM
same,TGI,[41],> 100 µM
same,TGI,[42],> 100 µM
same,TGI,[43],> 100 µM
same,TGI,[44],> 100 µM
same,TGI,[45],> 100 µM
same,TGI,[46],> 100 µM
same,TGI,[47],> 100 µM
CCOC(=O)c1cnc2sc3ccc4ccccc4c3n2c1=O,TGI,[1],> 100 µM
same,TGI,[3],> 100 µM
same,TGI,[48],> 100 µM
same,TGI,[4],99.4 µM
same,TGI,[5],82.6 µM
same,TGI,[6],> 100 µM
same,TGI,[49],> 100 µM
same,TGI,[7],> 100 µM
same,TGI,[8],> 100 µM
same,TGI,[50],> 100 µM
same,TGI,[9],> 100 µM
same,TGI,[10],> 100 µM
same,TGI,[11],> 100 µM
same,TGI,[51],52 µM
same,TGI,[12],> 100 µM
same,TGI,[13],> 100 µM
same,TGI,[14],> 100 µM
same,TGI,[15],> 100 µM
same,TGI,[16],> 100 µM
same,TGI,[17],> 100 µM
same,TGI,[18],> 100 µM
same,TGI,[19],> 100 µM
same,TGI,[20],> 100 µM
same,TGI,[21],> 100 µM
same,TGI,[22],> 100 µM
same,TGI,[23],> 100 µM
same,TGI,[24],> 100 µM
same,TGI,[25],> 100 µM
same,TGI,[26],> 100 µM
same,TGI,[52],> 100 µM
same,TGI,[27],> 100 µM
same,TGI,[53],> 100 µM
same,TGI,[54],> 100 µM
same,TGI,[29],> 100 µM
same,TGI,[30],> 100 µM
same,TGI,[31],> 100 µM
same,TGI,[55],> 100 µM
same,TGI,[32],> 100 µM
same,TGI,[33],> 100 µM
same,TGI,[34],> 100 µM
same,TGI,[35],> 100 µM
same,TGI,[56],> 100 µM
same,TGI,[57],> 100 µM
same,TGI,[36],> 100 µM
same,TGI,[37],> 100 µM
same,TGI,[38],> 100 µM
same,TGI,[39],> 100 µM
same,TGI,[40],> 100 µM
same,TGI,[41],> 100 µM
same,TGI,[42],> 100 µM
same,TGI,[43],> 100 µM
same,TGI,[44],> 100 µM
same,TGI,[45],> 100 µM
same,TGI,[58],> 100 µM
same,TGI,[46],> 100 µM
same,TGI,[47],94.6 µM
